Data published in paper PMC9090415, “Discovery of small molecule inhibitors of Plasmodium falciparum apicoplast DNA polymerase” (Journal of Enzyme Inhibition and Medicinal Chemistry, 2022).

Biological target: P. falciparum apicoplast DNA polymerase (Pf-apPOL) (Plasmodium falciparum, UniProt Q8ILY1)
Experiment: Fluorescence-based high-throughput DNA polymerase assay (molecular beacon), primary screen and dose-response;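 for % inhibition ApPOL 90': test concentration in µM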;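 for % inhibition apPOL 180': test concentration in µM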
Format: biochemical
Procedure, shortened: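 Single-point screening used 10 µM compound with 20 nM polymerase, 20 nM hairpin substrate and 6 µM dNTPs for 90 min at 25 °C. Confirmatory titrations (2.5–80 µM) followed fluorescence at three times, and IC50 was derived from a fit including a cooperativity term n.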

[1] = DRC-2, 40', concentration 10 (unit not given)
[2] = supplemental file 2, sheet IC50 nontoxic compounds; Pf-apPOL

P. falciparum apicoplast DNA polymerase (Pf-apPOL), sequence (Q8ILY1 entry or part of it): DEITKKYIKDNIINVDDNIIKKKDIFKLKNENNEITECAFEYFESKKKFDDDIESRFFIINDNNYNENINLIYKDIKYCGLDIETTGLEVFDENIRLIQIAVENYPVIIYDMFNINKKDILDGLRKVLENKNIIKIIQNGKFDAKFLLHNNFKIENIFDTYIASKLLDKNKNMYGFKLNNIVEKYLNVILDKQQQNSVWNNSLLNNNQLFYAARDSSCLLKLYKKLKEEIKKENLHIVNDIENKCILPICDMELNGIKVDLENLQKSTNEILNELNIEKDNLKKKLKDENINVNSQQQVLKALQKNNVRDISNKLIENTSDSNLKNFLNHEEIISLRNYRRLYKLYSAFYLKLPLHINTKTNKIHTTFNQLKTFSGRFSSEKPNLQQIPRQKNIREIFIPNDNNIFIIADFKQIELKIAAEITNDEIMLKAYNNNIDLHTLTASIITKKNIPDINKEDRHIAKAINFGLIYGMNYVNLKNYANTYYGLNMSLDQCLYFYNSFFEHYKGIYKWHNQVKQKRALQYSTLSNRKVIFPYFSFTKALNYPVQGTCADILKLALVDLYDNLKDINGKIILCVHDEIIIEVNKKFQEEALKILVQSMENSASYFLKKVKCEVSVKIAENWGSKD

## COc1ccc2c(c1)C(c1ccccc1OC)CC(=O)O2 (centres unmarked) [Molecule 38, COc1ccc2c(c1)C(CC(=O)O2)c1ccccc1OC]
'DNA Pol' of the 186 hits list (primary screen result); unit not given; 90 min, 10 µM
  DNA Pol: 27
DRC-1; 10'; concentration 2.5
  % inhibition Apo pol 10': 10.6274%
DRC-1; 10'; concentration 5
  % inhibition Apo pol 10': 16.1295%
DRC-1; 10'; concentration 10
  % inhibition Apo pol 10': 45.2437%
DRC-1; 10'; concentration 20
  % inhibition Apo pol 10': 76.7316%
DRC-1; 10'; concentration 40
  % inhibition Apo pol 10': 94.6893%
DRC-1; 10'; concentration 80
  % inhibition Apo pol 10': 97.2345%
DRC-1; 90'; concentration 2.5
  % inhibition Apol 90': -7.663%
DRC-1; 90'; concentration 5
  % inhibition Apol 90': -2.39%
DRC-1; 90'; concentration 10
  % inhibition Apol 90': 21.9297%
DRC-1; 90'; concentration 20
  % inhibition Apol 90': 56.4964%
DRC-1; 90'; concentration 40
  % inhibition Apol 90': 89.2946%
DRC-1; 90'; concentration 80
  % inhibition Apol 90': 96.5262%
DRC-1; 180'; concentration 2.5
  % inhibition apPOL 180': -11.4597%
DRC-1; 180'; concentration 5
  % inhibition apPOL 180': -6.316%
DRC-1; 180'; concentration 10
  % inhibition apPOL 180': 13.8407%
DRC-1; 180'; concentration 20
  % inhibition apPOL 180': 46.2939%
DRC-1; 180'; concentration 40
  % inhibition apPOL 180': 87.0263%
DRC-1; 180'; concentration 80
  % inhibition apPOL 180': 96.2979%
[1]
  % inhibition Apol 40': 27%
DRC-2, 90', concentration 5 (unit not given)
  % inhibition ApPOL 90': 7%
DRC-2, 180', concentration 5 (unit not given)
  % inhibition apPOL 180': 7%
DRC-2; 5'; concentration 2.5
  % inhibition Apo pol 5': 6.5%
DRC-2; 5'; concentration 5
  % inhibition Apo pol 5': 27%
DRC-2; 5'; concentration 5 (unit not given)
  % inhibition Apo pol 5': 27%
DRC-2; 5'; concentration 10
  % inhibition Apo pol 5': 41%
DRC-2; 5'; concentration 20
  % inhibition Apo pol 5': 55%
DRC-2; 5'; concentration 40
  % inhibition Apo pol 5': 64%
DRC-2; 5'; concentration 80
  % inhibition Apo pol 5': 69%
DRC-2; 40'; concentration 2.5
  % inhibition Apol 40': -7%
DRC-2; 40'; concentration 5
  % inhibition Apol 40': 10%
DRC-2; 40'; concentration 10
  % inhibition Apol 40': 27%
DRC-2; 40'; concentration 20
  % inhibition Apol 40': 54%
DRC-2; 40'; concentration 40
  % inhibition Apol 40': 72%
DRC-2; 40'; concentration 80
  % inhibition Apol 40': 81%
DRC-2; 90'; concentration 2.5
  % inhibition ApPOL 90': -8%
DRC-2; 90'; concentration 5
  % inhibition ApPOL 90': 7%
DRC-2; 90'; concentration 10
  % inhibition ApPOL 90': 23%
DRC-2; 90'; concentration 20
  % inhibition ApPOL 90': 53%
DRC-2; 90'; concentration 40
  % inhibition ApPOL 90': 74%
DRC-2; 90'; concentration 80
  % inhibition ApPOL 90': 84%
DRC-2; 180'; concentration 2.5
  % inhibition apPOL 180': -3.79%
DRC-2; 180'; concentration 5
  % inhibition apPOL 180': 7%
DRC-2; 180'; concentration 10
  % inhibition apPOL 180': 20%
DRC-2; 180'; concentration 20
  % inhibition apPOL 180': 50%
DRC-2; 180'; concentration 40
  % inhibition apPOL 180': 75%
DRC-2; 180'; concentration 80
  % inhibition apPOL 180': 86%
Primary screen value of the library well; unit not given; 90 min, 10 µM
  DNA Pol: 27

## O=C(Cn1ccc2c(=O)[nH]ccc21)Nc1cccc(Cl)c1 [Molecule 23, O=C(Cn1ccc2c1cc[nH]c2=O)Nc1cccc(c1)Cl]
DRC-1; 10'; concentration 2.5
  % inhibition Apo pol 10': 1.228%
DRC-1; 10'; concentration 5
  % inhibition Apo pol 10': 14.8384%
DRC-1; 10'; concentration 10
  % inhibition Apo pol 10': 62.4441%
DRC-1; 10'; concentration 20
  % inhibition Apo pol 10': 81.0439%
DRC-1; 10'; concentration 40
  % inhibition Apo pol 10': 80.7703%
DRC-1; 10'; concentration 80
  % inhibition Apo pol 10': 68.5193%
DRC-1; 90'; concentration 2.5
  % inhibition Apol 90': -3.118%
DRC-1; 90'; concentration 5
  % inhibition Apol 90': 4.6922%
DRC-1; 90'; concentration 10
  % inhibition Apol 90': 48.8063%
DRC-1; 90'; concentration 20
  % inhibition Apol 90': 74.6886%
DRC-1; 90'; concentration 40
  % inhibition Apol 90': 82.985%
DRC-1; 90'; concentration 80
  % inhibition Apol 90': 79.3379%
DRC-1; 180'; concentration 2.5
  % inhibition apPOL 180': -7.139%
DRC-1; 180'; concentration 5
  % inhibition apPOL 180': -3.837%
DRC-1; 180'; concentration 10
  % inhibition apPOL 180': 31.8886%
DRC-1; 180'; concentration 20
  % inhibition apPOL 180': 62.9592%
DRC-1; 180'; concentration 40
  % inhibition apPOL 180': 80.4785%
DRC-1; 180'; concentration 80
  % inhibition apPOL 180': 82.7611%
[1]
  % inhibition Apol 40': 63%
DRC-2, 40', concentration 20 (unit not given)
  % inhibition Apol 40': 65%
DRC-2, 90', concentration 10 (unit not given)
  % inhibition ApPOL 90': 63%
DRC-2, 90', concentration 80 (unit not given)
  % inhibition ApPOL 90': 57%
DRC-2, 180', concentration 10 (unit not given)
  % inhibition apPOL 180': 57%
DRC-2, 180', concentration 80 (unit not given)
  % inhibition apPOL 180': 65%
DRC-2; 5'; concentration 2.5
  % inhibition Apo pol 5': 7%
DRC-2; 5'; concentration 5
  % inhibition Apo pol 5': 28%
DRC-2; 5'; concentration 10
  % inhibition Apo pol 5': 46%
DRC-2; 5'; concentration 20
  % inhibition Apo pol 5': 43%
DRC-2; 5'; concentration 40
  % inhibition Apo pol 5': 34%
DRC-2; 5'; concentration 80
  % inhibition Apo pol 5': 19%
DRC-2; 40'; concentration 2.5
  % inhibition Apol 40': 6%
DRC-2; 40'; concentration 5
  % inhibition Apol 40': 35%
DRC-2; 40'; concentration 10
  % inhibition Apol 40': 63%
DRC-2; 40'; concentration 20
  % inhibition Apol 40': 65%
DRC-2; 40'; concentration 40
  % inhibition Apol 40': 60%
DRC-2; 40'; concentration 80
  % inhibition Apol 40': 49%
DRC-2; 90'; concentration 2.5
  % inhibition ApPOL 90': 3%
DRC-2; 90'; concentration 5
  % inhibition ApPOL 90': 31%
DRC-2; 90'; concentration 10
  % inhibition ApPOL 90': 63%
DRC-2; 90'; concentration 20
  % inhibition ApPOL 90': 69%
DRC-2; 90'; concentration 40
  % inhibition ApPOL 90': 67%
DRC-2; 90'; concentration 80
  % inhibition ApPOL 90': 57%
DRC-2; 180'; concentration 2.5
  % inhibition apPOL 180': -5%
DRC-2; 180'; concentration 5
  % inhibition apPOL 180': 18%
DRC-2; 180'; concentration 10
  % inhibition apPOL 180': 57%
DRC-2; 180'; concentration 20
  % inhibition apPOL 180': 71%
DRC-2; 180'; concentration 40
  % inhibition apPOL 180': 72%
DRC-2; 180'; concentration 80
  % inhibition apPOL 180': 65%
Primary screen value of the 186 hits; unit not given; 90 min, 10 µM
  DNA Pol: 79
Primary screen value, head "DNA Pol", unit not given; 90 min, 10 µM
  DNA Pol: 79

## COc1ccc(-c2c(C(F)(F)F)nn3c(=O)cc(-c4cccc([N+](=O)[O-])c4)[nH]c23)cc1 [Molecule 16]
[2]
  IC50: 9.3 µM

## Cc1nn(CC(=O)NCCSCc2ccco2)c(C)c1Br [KU0267182]
186 hits, value of the hit list (primary screen); unit not given; 90 min, 10 µM
  DNA Pol: 72
DRC-1; 10'; concentration 2.5
  % inhibition Apo pol 10': 1.812%
DRC-1; 10'; concentration 5
  % inhibition Apo pol 10': 6.711%
DRC-1; 10'; concentration 10
  % inhibition Apo pol 10': 15.4752%
DRC-1; 10'; concentration 20
  % inhibition Apo pol 10': 17.8463%
DRC-1; 10'; concentration 40
  % inhibition Apo pol 10': 47.0773%
DRC-1; 10'; concentration 80
  % inhibition Apo pol 10': 72.2462%
DRC-1; 90'; concentration 2.5
  % inhibition Apol 90': -1.178%
DRC-1; 90'; concentration 5
  % inhibition Apol 90': 2.416%
DRC-1; 90'; concentration 10
  % inhibition Apol 90': 7.223%
DRC-1; 90'; concentration 20
  % inhibition Apol 90': 9.063%
DRC-1; 90'; concentration 40
  % inhibition Apol 90': 29.9709%
DRC-1; 90'; concentration 80
  % inhibition Apol 90': 56.479%
DRC-1; 180'; concentration 2.5
  % inhibition apPOL 180': -4.52%
DRC-1; 180'; concentration 5
  % inhibition apPOL 180': -1.314%
DRC-1; 180'; concentration 10
  % inhibition apPOL 180': 2.547%
DRC-1; 180'; concentration 20
  % inhibition apPOL 180': 1.732%
DRC-1; 180'; concentration 40
  % inhibition apPOL 180': 16.5888%
DRC-1; 180'; concentration 80
  % inhibition apPOL 180': 39.2205%
DRC-2, 5', concentration 2.5
  % inhibition Apo pol 5': 6%
DRC-2, 5', concentration 5
  % inhibition Apo pol 5': 7.46%
DRC-2, 5', concentration 10
  % inhibition Apo pol 5': 16%
DRC-2, 5', concentration 20
  % inhibition Apo pol 5': 23%
DRC-2, 5', concentration 40
  % inhibition Apo pol 5': 43%
DRC-2, 5', concentration 80
  % inhibition Apo pol 5': 55%
DRC-2, 40', concentration 2.5
  % inhibition Apol 40': 7.41%
DRC-2, 40', concentration 5
  % inhibition Apol 40': 7%
DRC-2, 40', concentration 10
  % inhibition Apol 40': 15%
DRC-2, 40', concentration 20
  % inhibition Apol 40': 21%
DRC-2, 40', concentration 40
  % inhibition Apol 40': 45%
DRC-2, 40', concentration 80
  % inhibition Apol 40': 64%
DRC-2, 90', concentration 2.5
  % inhibition ApPOL 90': 6%
DRC-2, 90', concentration 5
  % inhibition ApPOL 90': 4%
DRC-2, 90', concentration 10
  % inhibition ApPOL 90': 12%
DRC-2, 90', concentration 20
  % inhibition ApPOL 90': 16%
DRC-2, 90', concentration 40
  % inhibition ApPOL 90': 39%
DRC-2, 90', concentration 80
  % inhibition ApPOL 90': 63%
DRC-2, 180', concentration 2.5
  % inhibition apPOL 180': 0.763%
DRC-2, 180', concentration 5
  % inhibition apPOL 180': -0.774%
DRC-2, 180', concentration 10
  % inhibition apPOL 180': 3.79%
DRC-2, 180', concentration 20
  % inhibition apPOL 180': 7.41%
DRC-2, 180', concentration 40
  % inhibition apPOL 180': 27%
DRC-2, 180', concentration 80
  % inhibition apPOL 180': 55%
DRC-2; 5'; concentration 2.5
  % inhibition Apo pol 5': 6%
DRC-2; 5'; concentration 10
  % inhibition Apo pol 5': 16%
DRC-2; 5'; concentration 80
  % inhibition Apo pol 5': 55%
DRC-2; 40'; concentration 2.5
  % inhibition Apol 40': 7.41%
DRC-2; 90'; concentration 2.5
  % inhibition ApPOL 90': 6%
DRC-2; 90'; concentration 20
  % inhibition ApPOL 90': 16%
DRC-2; 180'; concentration 20
  % inhibition apPOL 180': 7.41%
DRC-2; 180'; concentration 80
  % inhibition apPOL 180': 55%
Primary screen value, 'DNA Pol' only; 90 min, 10 µM
  DNA Pol: 72

## COc1ccc(/C=C/c2cc(C(=O)O)c3ccccc3n2)cc1 [Molecule 5]
[2]
  IC50: 3.86 µM
